According to PMC9127186, “Molecular Basis Underlying Hepatobiliary and Renal Excretion of Phenolic Acids of Salvia miltiorrhiza Roots (Danshen)” (Frontiers in Pharmacology, 2022):

Legend:
OATP1B3 = target: T1, OATP1B3 (Homo sapiens, UniProt Q9NPD5); test: Cellular transport assay, HEK-293 cells expressing human OATP1B3; details: for TransportTC/TransportMC ratio (net transport ratio): 10 min; for K m / V max: 5 min incubation, concentrations in Table 1
T1 sequence (Q9NPD5 1-702): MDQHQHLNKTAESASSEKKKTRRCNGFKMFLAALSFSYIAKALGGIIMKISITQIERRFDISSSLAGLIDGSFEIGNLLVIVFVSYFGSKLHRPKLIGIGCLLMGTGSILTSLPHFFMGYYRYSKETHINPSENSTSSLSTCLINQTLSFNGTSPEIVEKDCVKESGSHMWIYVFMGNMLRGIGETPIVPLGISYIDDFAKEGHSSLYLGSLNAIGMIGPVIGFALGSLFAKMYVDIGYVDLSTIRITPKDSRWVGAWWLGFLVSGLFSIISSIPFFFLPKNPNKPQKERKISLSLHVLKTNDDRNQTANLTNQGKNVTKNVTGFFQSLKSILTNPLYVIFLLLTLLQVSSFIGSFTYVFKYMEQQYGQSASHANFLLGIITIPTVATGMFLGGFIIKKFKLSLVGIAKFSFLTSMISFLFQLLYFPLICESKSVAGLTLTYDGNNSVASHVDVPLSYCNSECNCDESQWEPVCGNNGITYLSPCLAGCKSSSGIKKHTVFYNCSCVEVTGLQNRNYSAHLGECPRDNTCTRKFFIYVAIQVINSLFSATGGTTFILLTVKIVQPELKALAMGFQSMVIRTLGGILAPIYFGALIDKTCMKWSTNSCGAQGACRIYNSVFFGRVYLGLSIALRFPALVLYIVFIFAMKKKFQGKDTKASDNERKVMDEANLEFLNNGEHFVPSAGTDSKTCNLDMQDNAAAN

rat Oat2 = target: T2, rat Oat2 (Rattus norvegicus, UniProt Q5RLM2); test: Cellular transport assay, HEK-293 cells expressing rat Oat2; details: for TransportTC/TransportMC ratio (net transport ratio): 10 min; for K m: rat hepatic sinusoidal uptake Oat2 (also renal apical), 5 min incubation, concentrations in Table 1
T2 sequence (Q5RLM2 1-535): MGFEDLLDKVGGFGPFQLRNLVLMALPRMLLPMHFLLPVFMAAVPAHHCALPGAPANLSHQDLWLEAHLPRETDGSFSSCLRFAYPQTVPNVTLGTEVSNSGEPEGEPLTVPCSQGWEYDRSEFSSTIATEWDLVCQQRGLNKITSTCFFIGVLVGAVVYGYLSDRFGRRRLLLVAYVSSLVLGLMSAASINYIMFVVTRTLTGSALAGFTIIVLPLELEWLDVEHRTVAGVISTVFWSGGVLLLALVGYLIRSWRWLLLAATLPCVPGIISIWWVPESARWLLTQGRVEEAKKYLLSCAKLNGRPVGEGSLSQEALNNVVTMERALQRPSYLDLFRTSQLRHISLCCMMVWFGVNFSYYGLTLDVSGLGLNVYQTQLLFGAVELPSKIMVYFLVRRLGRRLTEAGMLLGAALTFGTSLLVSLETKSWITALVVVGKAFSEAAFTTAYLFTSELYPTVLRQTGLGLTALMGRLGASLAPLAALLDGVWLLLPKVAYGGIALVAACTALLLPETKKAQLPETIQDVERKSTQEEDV

rat Oatp1b2 = target: T3, rat Oatp1b2 (Rattus norvegicus, UniProt Q9QZX8); test: Cellular transport assay, HEK-293 cells expressing rat Oatp1b2; details: for TransportTC/TransportMC ratio (net transport ratio): 10 min
T3 sequence (Q9QZX8 1-687): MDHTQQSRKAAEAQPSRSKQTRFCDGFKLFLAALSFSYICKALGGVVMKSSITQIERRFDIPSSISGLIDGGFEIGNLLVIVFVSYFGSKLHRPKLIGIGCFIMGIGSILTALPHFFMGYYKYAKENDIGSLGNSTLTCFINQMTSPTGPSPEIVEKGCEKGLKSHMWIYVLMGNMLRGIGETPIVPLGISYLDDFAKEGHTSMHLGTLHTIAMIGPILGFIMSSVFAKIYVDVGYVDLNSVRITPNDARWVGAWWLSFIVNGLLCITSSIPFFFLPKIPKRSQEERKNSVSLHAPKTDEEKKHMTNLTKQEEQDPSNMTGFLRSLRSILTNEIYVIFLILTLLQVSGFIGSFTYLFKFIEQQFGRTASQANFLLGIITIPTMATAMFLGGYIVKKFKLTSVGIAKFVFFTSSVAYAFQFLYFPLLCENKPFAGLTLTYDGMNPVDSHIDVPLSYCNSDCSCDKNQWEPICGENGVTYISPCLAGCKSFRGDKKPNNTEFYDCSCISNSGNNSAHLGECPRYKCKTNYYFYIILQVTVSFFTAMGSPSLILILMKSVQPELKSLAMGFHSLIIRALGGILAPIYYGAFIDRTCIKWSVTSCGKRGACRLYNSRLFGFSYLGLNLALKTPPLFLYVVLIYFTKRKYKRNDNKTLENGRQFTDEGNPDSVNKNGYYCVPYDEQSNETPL

[1] = Danshen phenolic acid at 100 μM final concentration, human OATP1B3-transfected vs mock cells
[2] = human hepatic sinusoidal uptake OATP1B3
[3] = human, HEK-293 cells expressing human OATP1B3 (vs mock cells)
[4] = Danshen phenolic acid at 100 μM final concentration, rat Oat2-transfected vs mock cells
[5] = Danshen phenolic acid at 100 μM final concentration, rat Oatp1b2-transfected vs mock cells
[6] = rat hepatic sinusoidal uptake Oatp1b2, 5 min incubation, concentrations in Table 1

| Compound | substrate of human OATP1B3 (OATP1B3) | TransportTC/TransportMC ratio (net transport ratio) (OATP1B3; [1]) | K m (OATP1B3; [2]) [µM] | V max (OATP1B3; [2]) [pmol/min/mg protein] | TransportTC/TransportMC ratio (net transport ratio) (rat Oat2; [4]) | substrate of rat Oatp1b2 (rat Oatp1b2) | TransportTC/TransportMC ratio (net transport ratio) (rat Oatp1b2; [5]) | K m (rat Oatp1b2; [6]) [µM] | substrate of rat Oat2 (rat Oat2) | K m (rat Oat2) [µM] | other results |
| --- | --- | --- | --- | --- | --- | --- | --- | --- | --- | --- | --- |
| O=C(/C=C/c1ccc(O)c2c1[C@H](C(=O)O)[C@@H](c1ccc(O)c(O)c1)O2)O[C@H](Cc1ccc(O)c(O)c1)C(=O)O [Lithospermic acid, lithospermic acid] | substrates | 8.02 ± 0.52 | 182 ± 26 | 9.59 ± 0.51 | 1.36 ± 0.33 | substrates | 11.6 ± 0.7 | 91.3 ± 10.6 | – | – | microsomal CLint (OATP1B3; [3]): 0.05 µL/min/mg; microsomal CLint (rat Oatp1b2; rat): 0.41 µL/min/mg |
| O=C(O)c1ccc(O)c(O)c1 [Protocatechuic acid, protocatechuic acid] | – | 0.75 ± 0.09 | – | – | 163 ± 30 | neither protocatechuic acid nor tanshinol was a substrate | 1.32 ± 0.45 | – | substrates | 109 ± 6 | microsomal CLint (rat Oat2; rat): 10.9 µL/min/mg |
| O=C(/C=C/c1ccc(O)c(O)c1)O[C@H](Cc1ccc(O)c(O)c1)C(=O)O [Rosmarinic acid, rosmarinic acid] | substrates | – | – | – | – | substrates | – | 2049 ± 418 | substrates | 119 ± 15 | TransportTC/TransportMC ratio (net transport ratio) (OATP1B3; human, 100 μM): 7.28 ± 0.58; microsomal CLint (OATP1B3; human, other cell line): 0.09 µL/min/mg; TransportTC/TransportMC ratio (net transport ratio) (rat Oat2; rat, 100 μM): 334 ± 18; microsomal CLint (rat Oat2; rat, other cell line): 5.2 µL/min/mg; TransportTC/TransportMC ratio (net transport ratio) (rat Oatp1b2; rat, 100 μM): 17.0 ± 2.8; microsomal CLint (rat Oatp1b2; rat, other cell line): 0.08 µL/min/mg |
| O=C(/C=C/c1ccc(O)c(O)c1/C=C/c1ccc(O)c(O)c1)O[C@H](Cc1ccc(O)c(O)c1)C(=O)O [Salvianolic acid A, salvianolic acid A] | not a substrate | – | – | – | – | substrate | – | 50.5 ± 12.8 | not substrates | – | TransportTC/TransportMC ratio (net transport ratio) (OATP1B3; human, 100 μM): 1.02 ± 0.31; TransportTC/TransportMC ratio (net transport ratio) (rat Oat2; rat, 100 μM): 1.41 ± 0.26; TransportTC/TransportMC ratio (net transport ratio) (rat Oatp1b2; rat, 100 μM): 7.52 ± 1.31; microsomal CLint (rat Oatp1b2; rat, other cell line): 0.38 µL/min/mg |
| O=C(O)Cc1c(/C=C/C(=O)O[C@H](Cc2ccc(O)c(O)c2)C(=O)O)ccc(O)c1O [Salvianolic acid D, salvianolic acid D] | substrates | 5.83 ± 0.49 | 570 ± 79 | 98.5 ± 4.8 | 50.5 ± 10.7 | substrates | 16.0 ± 0.8 | 464 ± 62 | substrates | 60.0 ± 7.2 | microsomal CLint (OATP1B3; [3]): 0.17 µL/min/mg; microsomal CLint (rat Oat2; rat): 2.73 µL/min/mg; microsomal CLint (rat Oatp1b2; rat): 1.23 µL/min/mg |
| O=C(O)C(O)Cc1ccc(O)c(O)c1 (stereo not shown) [Tanshinol, tanshinol] | – | – | – | – | – | – | – | – | – | 978 ± 123 | – |
| salvianolic acid B | substrates | 16.2 ± 0.6 | 13.0 ± 1.6 | 11.0 ± 0.4 | 0.92 ± 0.22 | substrates | 30.0 ± 0.6 | 20.5 ± 1.9 | – | – | CLint (OATP1B3; [2]): 0.85 μL/min/mg protein; CLint (rat Oatp1b2; rat hepatic sinusoidal uptake Oatp1b2): 0.87 μL/min/mg protein; V max (rat Oatp1b2; [6]): 17.7 ± 0.5 pmol/min/mg protein |
